Results as given in patent US20060171944A1, “N-formyl peptide receptor mediation of platelet chemotaxis toward injured cells and activation of immune response” (priority 2002, published 2006).
Square brackets hold non-standard residues; d marks the D form. Ends that are not written are not given here. * marks the point of attachment. Nle = CCCC[C@H](N)C(=O)O; For = O=C*

Assays:
[1] = target: T1, N-formyl peptide receptors on human platelets (Homo sapiens, UniProt P21462); assay: Flow cytometry of fluorescein-conjugated peptide binding to human platelets; details: 10^−7 M peptide; platelets treated with 0, 0.001, 0.1 or 10 U thrombin
T1 construct: Platelet-rich plasma was prepared from whole blood by differential centrifugation; endogenous in cells
T1 sequence (P21462 1-350): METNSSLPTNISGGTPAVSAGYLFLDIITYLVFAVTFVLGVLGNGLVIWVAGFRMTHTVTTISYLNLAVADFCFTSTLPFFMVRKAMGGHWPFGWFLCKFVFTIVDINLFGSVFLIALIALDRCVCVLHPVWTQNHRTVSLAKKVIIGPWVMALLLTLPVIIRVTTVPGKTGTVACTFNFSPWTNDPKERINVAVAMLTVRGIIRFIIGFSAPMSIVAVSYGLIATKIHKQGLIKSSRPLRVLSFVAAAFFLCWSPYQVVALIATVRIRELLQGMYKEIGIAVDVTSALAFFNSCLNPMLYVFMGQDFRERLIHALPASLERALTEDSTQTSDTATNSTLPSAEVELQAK
Procedure: (§1) To test whether human platelets express N-formyl peptide receptors, the binding of identical fluorescein-conjugated peptides to human platelets was evaluated by flow cytometry, where one contained a formyl group N-formyl-Nle-Leu-Phe-Nle-Tyr-Lys (fNLFNYK-fl) (SEQ ID NO:1), and the other without a formyl group Nle-Leu-Phe-Nle-Tyr-Lys (NLFNYK-fl) (SEQ ID NO:2). […] However, with permeabilization of non-activated platelets, fluorescein staining of granule-like particles was detected within the interior of platelets (FIG. 1d). […] Differential interference contrast (DIC) imaging (FIG. 1g insert) confirmed the presence of platelets.
Platelet-rich plasma was prepared from whole blood by differential centrifugation at 800×g for 5 min at 22° C. The top two-thirds of the platelet-rich plasma was removed and washed in PBS containing 1% fetal bovine serum. Washed platelets were activated with 0, 0.001, 0.1 or 10 U thrombin (Sigma, St. Louis, Mo.) for 10 min at 37° C. The platelets were then washed and incubated with 10^−7 M fluorescein conjugated N-formyl peptide; fNLFNYK-fl (SEQ ID NO:1; Molecular Probes, Eugene, Oreg.) or 10^−7 M fluorescein conjugated non-N-formylated peptide; NLFNYK-fl (SEQ ID NO:2; New England Peptide, Fitchburg, Mass.) for 30 min at room temperature. […] Samples were analyzed on a Becton Dickinson (Franklin Lakes, N.J.) FASCcalibur/CELLQuest system. […]

[2] = target: T1, N-formyl peptide receptors on human platelets; assay: Confocal microscopy of fluorescein-conjugated peptide binding to human platelets; details: 10^−6 M peptide; thrombin-activated platelets
Procedure: as §1
Platelet-rich plasma was prepared as mentioned above. Washed platelets were activated with either 1 or 10 U thrombin (Sigma) for 10 min at 37° C. The platelets were washed two times and fixed with 4% paraformaldehyde for 20 min at 4° C. The platelets were then washed and permeablized with 100% methanol for 15 min at 4° C. […] The platelets were washed two times, spun onto cover slips, and mounted with ProLong® Antifade Kit (Molecular Probes). Confocal images were collected on a Leica TCS-NT/SP confocal microscope (Leica Microsystems, Exton, Pa.) using a 100-x oil emersion objective NA 1.4, zoom 2. Representative images from three independent experiments are shown (FIG. 2).

[3] = test system: human platelets; assay: Platelet chemotaxis by transwell migration (ChemoTx microplate); type: cell-based; details: for chemotaxis of thrombin-activated platelets toward peptide: 10^−6 and 10^−7 M peptide, 10 U thrombin, P<0.001
Procedure: The chemotactic activity of activated and non-activated platelets in response to different concentrations of fMLF by transwell migration (FIG. 4a) was determined. […] Both thrombin-activated and non-activated platelet migration followed a concentration-response curve that was greatest at 10^−6 M fMLF (27.2±12) in the thrombin-activated platelets and 10^−7 M fMLF (11.5±6.5) in the non-activated platelets (FIG. 4a). […] Next the dependence of platelet chemotaxis on the presence of a Formyl group on the peptide was tested. […] Non-activated platelets behaved similarly. Thus, the presence of a Formylgroup was essential for FPR binding, calcium mobilization and platelet chemotaxis.
Platelet migration was assessed using a 96-well ChemoTx® microplate (Neuro Probe, Gaithersburg Md.). For all chemotaxis experiments, different concentrations of stimulants were placed in the bottom wells of the microplate and the filter was positioned (2 μm pore size). The cell suspension was seeded onto the top of the filter (30 μl) and the microplates were incubated for 2 hrs at 37° C. For all chemokinesis experiments, different concentrations of stimulants were placed in the bottom wells of the microplate and the filter was positioned. The cell suspension containing different concentrations of stimulants were placed on the filter (30 μl) in a gradient fashion. After incubation, the lid was removed and the filter was gently wiped with a cell harvester and carefully flushed with media to remove any of the non-migrated cells. The filter was then carefully removed and the migrated cells were counted by light microscopy. Results are expressed as the mean value (±SD) of total migrated cells, in triplicate samples, and are taken from five experiments independent.
Chemotactic responses were distinguished from chemokinetic responses by placing increasing concentrations of fMLF in the upper and lower chambers of the transwell plates (Table 1).
There was no enhanced cell migration when higher concentrations of fMLF were present in the upper wells or with equal concentrations of fMLF in both the upper and lower wells, as would be seen with chemokinesis.
Different concentrations of fMLF were placed in the upper and/or lower wells of the chemotaxis plate; platelets at 10^6 cells/ml were placed on the upper filter. After a 2-hour incubation, the non-migrated cells were removed and the cells that migrated across the filter were counted. The results are expressed as the mean value (±SD) of the migrated cells in at least six separate experiments (n=24). Grey shading indicates wells containing a greater concentration of fMLF in the lower well compared to the upper well. Platelet migration in transwells maintaining a gradient of fMLF between chambers were compared with wells containing equimolar concentrations of fMLF in both chambers (p<0.002, Student's t-test)

[4] = test system: human platelets; assay: Intracellular free calcium in fura-2 loaded platelets; type: cell-based; details: for calcium signal: thrombin-activated as well as non-activated platelets, 1 U thrombin, 10^−6 M peptide
Procedure: Washed platelets were activated with either 0 U or 1 U thrombin (Sigma) for 10 min at 37° C. Fura-2 loaded platelets were prepared by incubating the platelets, for 45 min with fura-2 acetoxymethyl ester at 37° C. The dye-loaded platelets were washed and resuspended in calcium-free HBSS standard solution. The cells were then transferred into quartz cuvettes (10^9 cells in 2 ml), which were placed in a model MS-III spectrofluorometer (Photon Technologies, Inc.; South Brunswick, N.J.) and continuously stirred at 37° C. Stimulants were added in a 2 μl volume at indicated time points. The ratios of fluorescence at excitation wavelengths 340 and 380 nm and emission wavelength at 510 nm were calculated using FeliX fluorescence analysis software (Photon Technology Instruments; London, Ontario, Canada). Representative traces from at least six independent experiments are shown.

[5] = test system: Hep-2 cells; assay: Induction of apoptosis in Hep-2 cells, scored by H-33342/SYTOX staining; type: cell-based; details: 1 μM for 5 hours
Procedure: Hep-2-cells were grown in DMEM medium supplemented with 10% FCS. Before each experiment, the cells were washed and the media was replaced with serum-free DMEM. After adaptation to this medium, cells were exposed to repeated freeze/thaw or UV radiation (1000J) in a UV Stratalinker UV oven (Stratagene) to induce necrosis. To induce apoptosis, cells were treated with 1 μM staurosporine (STS) for 5 hours. After the treatments, the cells were placed into a tissue culture incubator overnight. The supernatant was collected and used for experimentation and the cells were stained with a mixture of the membrane permeant dye H-33342 (500 ng/ml) and the membrane impermeant dye SYTOX (500 nM) (Molecular Probes; Eugene, Oreg.). Necrotic (damaged plasma membrane; non-condensed nuclei) and apoptotic (intact plasma membrane; characteristically condensed or fragmented nuclei) cells were scored. Necrotic cells after UV radiation=84%. Apoptotic cells after STS treatment=80%.

[6] = test system: MEG-01 cells; assay: RT-PCR of FPR and FPRL-1 in MEG-01 cells; type: cell-based, human; details: 10^−7 M PMA for 5 days
Procedure: To further confirm that platelets express human N-formyl peptide receptors (FPR), RT-PCR of RNA harvested from the megakaryocytic cell line MEG-01 was performed. […] Treatment of MEG-01 cells with phorbol 12-myristate 13-acetate (PMA) induced differentiation with production of platelet-like structures^36. RNA harvested from HL60 cells, a promyelocytic cell line that expresses both FPR and FPRL 1, is shown in lane 1 (RT included), lane 2 (RT excluded), and lane 3 (RNA excluded) (FIG. 2a). […] RT-PCR generated bands were confirmed to encode the FPR or FPRL1 by sequence analysis. FPR protein expression in platelets was shown by immunoblotting with FPR specific antibody.
Total RNA was isolated using Ultraspec RNA isolation system (Biotecx Laboratories Inc., Houston Tes.), according to the manufacturer's protocol. To confirm purity of the product RNA, absorption ratios at 260/280 nm were determined to be […] for all samples. The samples were adjusted to 200 ng/μl for reverse transcription and PCR according to absorption at 260 nm. Total RNA was reversed-transcribed using Thermoscript RT (GibcoBRL, Gaithersburg, Md.). Conditions for PCR amplification of the resulting first-strand DNA template involved preheating a mixture of Taq DNA polymerase (5 U/ml) (GibcoBRL), primers, cDNA, and PCR components to 95° C. for 5 min before amplification. […]

In the case of “Nle-Leu-Phe-Nle-Tyr-Lys ([Nle]LF[Nle]YK-fluorescein) [NLFNYK-fl, fluorescein conjugated non-N-formylated peptide (New England Peptide)]”, the “binding of fluorescein-conjugated peptide to platelets by flow cytometry” value [1] is reported as “non-specific and did not increase with thrombin activation”, the “binding of fluorescein-conjugated peptide to platelets by confocal microscopy” value [2] is reported as “no binding” and the “chemotaxis of thrombin-activated platelets toward peptide” value [3] is reported as “failed to induce significant chemotaxis”.

For For-[Nle]LF[Nle]YK [fNLFNYK-fl], the “binding of fluorescein-conjugated peptide to platelets by flow cytometry” value [1] was “increased binding with increased thrombin activation”, the “binding of fluorescein-conjugated peptide to platelets by confocal microscopy” value [2] was “upregulation of external N-formyl peptide binding with platelet activation” and the “chemotaxis of thrombin-activated platelets toward peptide” value [3] was “significantly more migration”.

For CN[C@@H]1C[C@H]2O[C@@](C)([C@@H]1OC)n1c3ccccc3c3c4c(c5c6ccccc6n2c5c31)C(=O)NC4 [STS, staurosporine], the “platelet calcium flux response to thrombin after incubation with STS” value ([4]; platelets incubated with STS directly) was “capable of subsequent calcium flux responses to thrombin” and the “apoptotic cells after treatment” value [5] was 80%.

In the case of “N-formyl-methionine-leucine-phenalanine [fMLF]”, the “checkerboard analysis: chemotaxis versus chemokinesis” value ([3]; fMLF in upper and/or lower wells, 2-hour incubation) is reported as “directed migration and not chemokinesis”, the “platelet migration, mean value (±SD) of migrated cells” value ([3]; non-activated platelets, 10^−7 M fMLF (greatest response)) is reported as 11.5±6.5 and the “platelet migration, mean value (±SD) of migrated cells” value ([3]; thrombin-activated platelets, 10^−6 M fMLF (greatest response)) is reported as 27.2±12. The “calcium signal after pretreatment with thrombin” value ([4]; pretreatment with thrombin (1 U), then fMLF stimulation) was “greater fluorescent signal” and the calcium signal [4] was “induced a calcium signal”.

With CCCCCCCCCCCCCC(=O)O[C@@H]1[C@@H](C)[C@@]2(O)[C@@H](C=C(CO)C[C@]3(O)C(=O)C(C)=C[C@@H]23)[C@@H]2C(C)(C)[C@]12OC(C)=O [PMA, phorbol 12-myristate 13-acetate] the “FPR and FPRL-1 mRNA expression after induced megakaryocyte differentiation” value [6] was “transactivation of the genes encoding both the FPR and FPRL-1”.

With MLF: the non formyl peptide, MLF the calcium signal [4] was “failed to elicit a calcium signal”.

In the case of thrombin, the calcium signal [4] is reported as “induced a calcium signal”.
